# Measured values: US8674059B2, “Colon cancer related gene TOM34” (Oncotherapy Science, Inc., priority 2005, dated 2014)
# Where no end group is shown, it is not given here.
# Assays:
# Type in all cases: cell-based, human
# HT29 cells = test: Cold target inhibition assay; conditions: E/T ratio 20; TISI with or without loaded peptide
# Experimental: FIG. 9 depict HLA specificity of the CTL clones raised by TOM34-299. The CTL clone raised by TOM34-299 specifically recognizes TOM34 in the HLA-A24 restricted manner. • The cold target inhibition assay was performed as described in “Materials and Methods”. HT29 cells labeled by Na2^51CrO4 were prepared as hot target, while TISI cells with or without loaded TOM34-299 peptide were used without ^51Cr labeling as cold targets. E/T ratio was fixed at 20.
# (§1) Target cells were labeled with 100 μCi of Na2^51CrO4 (Perkin Elmer Life Sciences) for 1 hr at 37° C. in a CO2 incubator. Peptide-loaded target cells were prepared by incubating the cells with 20 μg/ml of the peptide for 16 hrs at 37° C. before labeling. Labeled target cells were rinsed and mixed with effector cells in a final volume of 0.2 ml in round-bottom microtiter plates. The plates were centrifuged (4 minutes at 800×g) to increase cell-to-cell contact and placed in a CO2 incubator at 37° C. After 4 hrs of incubation, 0.1 ml of the supernatant was collected from each well and the radioactivity was determined with a gamma counter. In case of evaluating cytotoxicity for target cells that endogenously express TOM34, the cytolytic activity was tested in the presence of 30-fold excess of unlabeled K562 cells to eliminate any non-specific lysis due to NK-like effectors. […]
# HT29 = test: 51Cr-release cytotoxicity of CTL clones against HT29 cells endogenously expressing TOM34; conditions: HT29, expresses TOM34 and HLA-A24
# Experimental: as §1
# (§2) The percentage of specific cytotoxicity was determined by calculating the percentage of specific ^51Cr-release by the following formula: {(cpm of the test sample release−cpm of the spontaneous release)/(cpm of the maximum release−cpm of the spontaneous release)}×100. Spontaneous release was determined by incubating the target cells alone, in the absence of effector cells, and the maximum release was obtained by incubating the targets with 1N HCl. […]
# DLD-1 = test: 51Cr-release cytotoxicity of CTL clones against DLD-1 cells endogenously expressing TOM34; conditions: DLD-1, expresses TOM34 and HLA-A24
# Experimental: as §1, §2
# SNU-C2A = test: 51Cr-release cytotoxicity of CTL clones against SNU-C2A cells (TOM34 positive, HLA-A24 negative); conditions: expresses TOM34 but not HLA-A24
# Experimental: as §1, §2
# TISI cells (HLA-A24/24) = test: In vitro CTL induction and 51Cr-release cytotoxicity assay against peptide-loaded TISI cells
# Text: Monocyte-derived dendritic cells (DCs) were used as antigen-presenting cells (APCs) to induce CTLs against peptides presented on HLA. DCs were generated in vitro as described elsewhere (Nukaya I, et al., Int J Cancer. 1999; 80(1):92-7; Tsai V, et al., J Immunol. 1997; 158(4):1796-802). Briefly, peripheral blood mononuclear cells (PBMCs) were isolated from normal volunteers ((HLA-A24) by Ficoll-Paque (Pharmacia) solution and separated by adherence to a plastic tissue culture flask (Becton Dickinson) so as to enrich them for the monocyte fraction. The monocyte-enriched population was cultured in the presence of 1,000 U/ml of GM-CSF (provided by Kirin Brewery Company) and 1,000 U/ml of IL-4 (Genzyme) in AIM-V (Invitrogen) containing 2% heat-inactivated autologous serum (AS). After 7 days in the culture, the cytokine-generated DCs were loaded with 20 μg/ml of HLA-A24-binding peptides in the presence of 3 μg/ml of β2-microglobulin for 4 hrs at 20° C. in AIM-V. These peptide-loaded DCs were then irradiated (5,500 rad) and mixed at a 1:20 ratio with autologous CD8+ T cells, obtained by positive selection with Dynabeads M-450 CD8 (Dynal) and Detachabead (Dynal). This mixture was subdivided and aliquots were incubated in 48-well plates (Corning); each well contained 1.5×10^4 peptide-loaded DCs and 3×10^5 CD8+ T cells in 0.5 ml of AIM-V/2% AS containing 10 ng/ml of IL-7 (Genzyme). Three days later, these cultures were supplemented with IL-2 (CHIRON) to a final concentration of 20 IU/ml. On day 7 and 14, the T cells were further restimulated with the autologous peptide-loaded DCs. The DCs were prepared each time by the same way as described above. Cytotoxicity was tested against peptide-loaded TISI cells after the 3rd round of peptide stimulation on day 21. […]
# Target cells were labeled with 100 μCi of Na2^51CrO4 (Perkin Elmer Life Sciences) for 1 hr at 37° C. in a CO2 incubator. […] After 4 hrs of incubation, 0.1 ml of the supernatant was collected from each well and the radioactivity was determined with a gamma counter. […]
sequence,measurement,setting,value
KLRQEVKQNL [KLRQEVKQNL],cytotoxic activity of CTL clone against HT29 in presence of cold target TISI cells,HT29 cells,inhibited by the addition of TISI cells only when loaded with the peptide
same,cytotoxic activity of two CTL clones,HT29,potent cytotoxic activity
same,cytotoxic activity of two CTL clones,DLD-1,potent cytotoxic activity
same,cytotoxic activity of two CTL clones,SNU-C2A,neither of the two CTL clones showed any relevant cytotoxic activity
same,cytotoxic activity of CTL lines against the peptide-loaded target,"TISI cells (HLA-A24/24); CTL lines stimulated by the peptide, TISI loaded with peptide",potent cytotoxic activity
same,cytotoxic activity of CTL lines against targets not loaded with the peptide,TISI cells (HLA-A24/24); TISI without loaded peptide,without showing any significant cytotoxic activity
same,E/T ratio at which antigen-specific cytotoxicity of CTL lines is detectable,TISI cells (HLA-A24/24); as low as,1.2
